ChEMBL document CHEMBL1145503, “Paradoxical effect of Echinocandins across Candida species in vitro: evidence for echinocandin-specific and candida species-related differences” (2007)
In brackets after ≈: the same amount, converted by molar mass. Numbered stars: 1 amine (or outer) side, 2 acyl side, 3 side chain; on linkers, the order of the positions; unused ones are H or OH. Bridge positions count the residues as written; N and C are the ends. Square brackets hold non-standard residues; d marks the D form. Peptide text beside a SMILES is read from it. * marks the point of attachment. hTyr(3S-OH,4S-OH,3'-OSO3H) = N[C@H](C(=O)O)[C@H](O)[C@@H](O)c1ccc(O)c(OS(=O)(=O)O)c1; pTerphenylCO(4''-OnC5H11) = CCCCCOc1ccc(-c2ccc(-c3ccc(C(=O)*)cc3)cc2)cc1; Orn(4R-OH,5R-OH) = O=C([C@H](C[C@@H](O)[C@@H](O)N[*:3])N[*:1])[*:2]; hTyr(3S-OH,4S-OH) = N[C@H](C(=O)O)[C@H](O)[C@@H](O)c1ccc(O)cc1; Pro(3S-OH,4S-Me) = C[C@H]1CN[C@H](C(=O)O)[C@H]1O; X1 = CCCCCOc1ccc(-c2cc(-c3ccc(C(=O)*)cc3)no2)cc1; Gln(3R-OH) = NC(=O)C[C@@H](O)[C@H](N)C(=O)O; Hyp = O=C(O)[C@@H]1C[C@@H](O)CN1

Key:
Type in all cases: functional
Candida parapsilosis [1] = test: Antifungal activity against Candida parapsilosis after 48 hrs; conditions: Lodderomyces parapsilosis
Candida tropicalis [2] = test: Antifungal activity against Candida tropicalis after 48 hrs
Nakaseomyces glabratus [3] = test: Antifungal activity against Candida glabrata after 48 hrs
Pichia kudriavzevii [4] = test: Antifungal activity against Candida krusei after 48 hrs
Candida albicans [5] = test: Antifungal activity against Candida albicans after 48 hrs
Candida tropicalis [6] = test: Paradoxical effect in Candida tropicalis assessed as increase in turbidity at 16 times MIC
Nakaseomyces glabratus [7] = test: Paradoxical effect in Candida glabrata assessed as increase in turbidity at 16 times MIC
Candida albicans [8] = test: Paradoxical effect in Candida albicans assessed as increase in turbidity at 16 times MIC
Candida parapsilosis [9] = test: Paradoxical effect in Candida parapsilosis assessed as increase in turbidity at 16 times MIC
Pichia kudriavzevii [10] = test: Paradoxical effect in Candida krusei assessed as increase in turbidity at 16 times MIC
Candida tropicalis [11] = test: Paradoxical effect in Candida tropicalis assessed as increase in turbidity at 64 times MIC
Candida albicans [12] = test: Paradoxical effect in Candida albicans assessed as increase in turbidity at 64 times MIC
Pichia kudriavzevii [13] = test: Paradoxical effect in Candida krusei assessed as increase in turbidity at 64 times MIC
Nakaseomyces glabratus [14] = test: Paradoxical effect in Candida glabrata assessed as increase in turbidity at 64 times MIC
Candida parapsilosis [15] = test: Paradoxical effect in Candida parapsilosis assessed as increase in turbidity at 64 times MIC
Candida parapsilosis [16] = test: Paradoxical effect in Candida parapsilosis assessed as increase in turbidity at 96 times MIC
Candida tropicalis [17] = test: Paradoxical effect in Candida tropicalis assessed as increase in turbidity at 96 times MIC
Pichia kudriavzevii [18] = test: Paradoxical effect in Candida krusei assessed as increase in turbidity at 96 times MIC
Candida albicans [19] = test: Paradoxical effect in Candida albicans assessed as increase in turbidity at 96 times MIC
Nakaseomyces glabratus [20] = test: Paradoxical effect in Candida glabrata assessed as increase in turbidity at 96 times MIC

SMILES | MIC50 (Candida parapsilosis [1]) [µg/mL] | MIC90 (Candida parapsilosis [1]) [µg/mL] | MIC50 (Candida tropicalis [2]) [µg/mL] | MIC90 (Candida tropicalis [2]) [µg/mL] | MIC50 (Nakaseomyces glabratus [3]) [µg/mL] | MIC90 (Nakaseomyces glabratus [3]) [µg/mL] | MIC50 (Pichia kudriavzevii [4]) [µg/mL] | MIC90 (Pichia kudriavzevii [4]) [µg/mL] | MIC50 (Candida albicans [5]) [µg/mL] | MIC90 (Candida albicans [5]) [µg/mL] | other results
CCCCCOc1ccc(-c2ccc(-c3ccc(C(=O)N[C@H]4C[C@@H](O)[C@@H](O)NC(=O)[C@@H]5[C@@H](O)[C@@H](C)CN5C(=O)[C@H]([C@@H](C)O)NC(=O)[C@H]([C@H](O)[C@@H](O)c5ccc(O)cc5)NC(=O)[C@@H]5C[C@@H](O)CN5C(=O)[C@H]([C@@H](C)O)NC4=O)cc3)cc2)cc1 [ANIDULAFUNGIN] ({pTerphenylCO(4''-OnC5H11)}-[Orn(4R-OH,5R-OH)]T[Hyp][hTyr(3S-OH,4S-OH)]T[Pro(3S-OH,4S-Me)]; lactam 1-C) | 0.5 (≈ 0.438 µM) | 0.5 (≈ 0.438 µM) | 0.5 (≈ 0.438 µM) | 1 (≈ 0.877 µM) | 0.5 (≈ 0.438 µM) | 0.5 (≈ 0.438 µM) | 0.25 (≈ 0.219 µM) | 0.25 (≈ 0.219 µM) | 0.5 (≈ 0.438 µM) | 1 (≈ 0.877 µM) | Activity (Candida tropicalis [6]): 20%; Activity (Nakaseomyces glabratus [7]): 0%; Activity (Candida albicans [8]): 40%; Activity (Candida parapsilosis [9]): 0%; Activity (Pichia kudriavzevii [10]): 0%
CC[C@H](C)C[C@H](C)CCCCCCCCC(=O)N[C@H]1C[C@@H](O)[C@@H](NCCN)NC(=O)[C@@H]2[C@@H](O)CCN2C(=O)[C@H]([C@H](O)CCN)NC(=O)[C@H]([C@H](O)[C@@H](O)c2ccc(O)cc2)NC(=O)[C@@H]2C[C@@H](O)CN2C(=O)[C@H]([C@@H](C)O)NC1=O [CASPOFUNGIN] | 0.5 (≈ 0.457 µM) | 1 (≈ 0.915 µM) | 1 (≈ 0.915 µM) | 1 (≈ 0.915 µM) | 0.25 (≈ 0.229 µM) | 0.5 (≈ 0.457 µM) | 0.06 (≈ 0.0549 µM) | 1 (≈ 0.915 µM) | 0.125 (≈ 0.114 µM) | 0.25 (≈ 0.229 µM) | Activity (Candida tropicalis [11]): 40%; Activity (Candida albicans [12]): 60%; Activity (Pichia kudriavzevii [13]): 10%; Activity (Nakaseomyces glabratus [14]): 0%; Activity (Candida parapsilosis [15]): 90%
CCCCCOc1ccc(-c2cc(-c3ccc(C(=O)N[C@H]4C[C@@H](O)[C@@H](O)NC(=O)[C@@H]5[C@@H](O)[C@@H](C)CN5C(=O)[C@H]([C@H](O)CC(N)=O)NC(=O)[C@H]([C@H](O)[C@@H](O)c5ccc(O)c(OS(=O)(=O)O)c5)NC(=O)[C@@H]5C[C@@H](O)CN5C(=O)[C@H]([C@@H](C)O)NC4=O)cc3)no2)cc1 [MICAFUNGIN] (X1-[Orn(4R-OH,5R-OH)]T[Hyp][hTyr(3S-OH,4S-OH,3'-OSO3H)][Gln(3R-OH)][Pro(3S-OH,4S-Me)]; lactam 1-C) | 1 (≈ 0.787 µM) | 2 (≈ 1.57 µM) | 0.06 (≈ 0.0472 µM) | 0.06 (≈ 0.0472 µM) | 0.06 (≈ 0.0472 µM) | 0.125 (≈ 0.0984 µM) | 0.5 (≈ 0.394 µM) | 0.5 (≈ 0.394 µM) | 0.25 (≈ 0.197 µM) | 0.25 (≈ 0.197 µM) | Activity (Candida parapsilosis [16]): 0%; Activity (Candida tropicalis [17]): 70%; Activity (Pichia kudriavzevii [18]): 60%; Activity (Candida albicans [19]): 0%; Activity (Nakaseomyces glabratus [20]): 0%
